From ChEMBL document CHEMBL3885881, “DrugMatrix”

Organism: Rattus norvegicus
Assay: DrugMatrix - Regimen: Daily Repeat
Type: toxicity, organism-based, Sprague-Dawley
Design: regimen Daily Repeat, gender Male, age 6-8 weeks
Details: in vivo, po, route oral GAVAGE, vehicle .5 % CMC; for BASOPHIL / EOSINOPHIL / ERYTHROCYTE COUNT / HEMATOCRIT / HEMOGLOBIN / LEUKOCYTE COUNT / LYMPHOCYTE / MEAN CORPUSCULAR HEMOGLOBIN / MEAN CORPUSCULAR HEMOGLOBIN CONCENTRATION / MEAN CORPUSCULAR VOLUME / MONOCYTE / NEUTROPHIL / PLATELET COUNT: tissue Blood; for ALANINE AMINOTRANSFERASE / ALBUMIN / ALKALINE PHOSPHATASE / ASPARTATE AMINOTRANSFERASE / BLOOD UREA NITROGEN / CHLORIDE / CHOLESTEROL / CREATINE PHOSPHOKINASE / CREATININE / GLUCOSE / PHOSPHORUS / POTASSIUM / SODIUM / TOTAL BILIRUBIN / TOTAL PROTEIN: tissue Plasma
[1] = 0 mg/kg, 72 h, dose level Control, time 3 day
[2] = 0 mg/kg, 120 h, dose level Control, time 5 day
[3] = 21 mg/kg, 72 h, dose level Low, time 3 day
[4] = 21 mg/kg, 120 h, dose level Low, time 5 day

`Cc1onc(-c2ccccc2)c1-c1ccc(S(N)(=O)=O)cc1` [VALDECOXIB] was tested, and the BASOPHIL [1] was 0.68%, the EOSINOPHIL [1] was 0.46% and the “ERYTHROCYTE COUNT” value [1] was 7.15 x10E6/uL. The HEMATOCRIT [1] was 45.44%, the HEMOGLOBIN [1] was 14.1 G/DL and the “LEUKOCYTE COUNT” value [1] was 9.78 x10E3/uL. The LYMPHOCYTE [1] was 84.44%, the “MEAN CORPUSCULAR HEMOGLOBIN” value [1] was 19.72 pg and the “MEAN CORPUSCULAR HEMOGLOBIN CONCENTRATION” value [1] was 31 G/DL. The “MEAN CORPUSCULAR VOLUME” value [1] was 63.66 fL, the MONOCYTE [1] was 2.14% and the NEUTROPHIL [1] was 11.16%. For the same compound, the “PLATELET COUNT” value [1] was 1378.2 x10E3/uL, the “ALANINE AMINOTRANSFERASE” value [1] was 42.33 u/L and the ALBUMIN [1] was 3.8 G/DL. For the same compound, the “ALKALINE PHOSPHATASE” value [1] was 388.17 u/L, the “ASPARTATE AMINOTRANSFERASE” value [1] was 68 u/L and the “BLOOD UREA NITROGEN” value [1] was 16.17 mg/dL. The CHLORIDE [1] was 96.67 MEQ/L, the CHOLESTEROL [1] was 71 mg/dL and the “CREATINE PHOSPHOKINASE” value [1] was 156.17 u/L. It also gave a CREATININE [1] of 0.57 mg/dL, a GLUCOSE [1] of 193.67 mg/dL and a PHOSPHORUS [1] of 11.43 mg/dL. The POTASSIUM [1] was 7 MEQ/L, the SODIUM [1] was 140.33 MEQ/L and the “TOTAL BILIRUBIN” value [1] was 0.48 mg/dL. The “TOTAL PROTEIN” value [1] was 6.8 G/DL, the BASOPHIL [2] was 1.47% and the EOSINOPHIL [2] was 1%. The “ERYTHROCYTE COUNT” value [2] was 7.12 x10E6/uL, the HEMATOCRIT [2] was 45.47% and the HEMOGLOBIN [2] was 14.1 G/DL. For the same compound, the “LEUKOCYTE COUNT” value [2] was 11.38 x10E3/uL, the LYMPHOCYTE [2] was 82.57% and the “MEAN CORPUSCULAR HEMOGLOBIN” value [2] was 19.82 pg. For the same compound, the “MEAN CORPUSCULAR HEMOGLOBIN CONCENTRATION” value [2] was 31.02 G/DL, the “MEAN CORPUSCULAR VOLUME” value [2] was 63.88 fL and the MONOCYTE [2] was 2.2%. For the same compound, the NEUTROPHIL [2] was 11.97%, the “PLATELET COUNT” value [2] was 1267 x10E3/uL and the “ALANINE AMINOTRANSFERASE” value [2] was 38 u/L. The ALBUMIN [2] was 3.72 G/DL, the “ALKALINE PHOSPHATASE” value [2] was 391 u/L and the “ASPARTATE AMINOTRANSFERASE” value [2] was 65.83 u/L. For the same compound, the “BLOOD UREA NITROGEN” value [2] was 14.17 mg/dL, the CHLORIDE [2] was 107.67 MEQ/L and the CHOLESTEROL [2] was 61 mg/dL. For the same compound, the “CREATINE PHOSPHOKINASE” value [2] was 148.33 u/L, the CREATININE [2] was 0.57 mg/dL and the GLUCOSE [2] was 177.17 mg/dL. For the same compound, the PHOSPHORUS [2] was 12.07 mg/dL, the POTASSIUM [2] was 7.2 MEQ/L and the SODIUM [2] was 151.5 MEQ/L. The “TOTAL BILIRUBIN” value [2] was 0.58 mg/dL, the “TOTAL PROTEIN” value [2] was 6.72 G/DL and the BASOPHIL [3] was 0.53%. For the same compound, the EOSINOPHIL [3] was 0.4%, the “ERYTHROCYTE COUNT” value [3] was 6.91 x10E6/uL and the HEMATOCRIT [3] was 43%. The HEMOGLOBIN [3] was 13.7 G/DL, the “LEUKOCYTE COUNT” value [3] was 11.32 x10E3/uL and the LYMPHOCYTE [3] was 84.1%. The “MEAN CORPUSCULAR HEMOGLOBIN” value [3] was 19.8 pg, the “MEAN CORPUSCULAR HEMOGLOBIN CONCENTRATION” value [3] was 31.87 G/DL and the “MEAN CORPUSCULAR VOLUME” value [3] was 62.2 fL. The MONOCYTE [3] was 2.17%, the NEUTROPHIL [3] was 11.67% and the “PLATELET COUNT” value [3] was 1322.33 x10E3/uL. For the same compound, the “ALANINE AMINOTRANSFERASE” value [3] was 35 u/L, the ALBUMIN [3] was 3.63 G/DL and the “ALKALINE PHOSPHATASE” value [3] was 309 u/L. The “ASPARTATE AMINOTRANSFERASE” value [3] was 58.33 u/L, the “BLOOD UREA NITROGEN” value [3] was 13 mg/dL and the CHLORIDE [3] was 95.33 MEQ/L. For the same compound, the CHOLESTEROL [3] was 78.33 mg/dL, the “CREATINE PHOSPHOKINASE” value [3] was 150 u/L and the CREATININE [3] was 0.47 mg/dL. The GLUCOSE [3] was 190 mg/dL, the PHOSPHORUS [3] was 11.8 mg/dL and the POTASSIUM [3] was 6.2 MEQ/L. For the same compound, the SODIUM [3] was 139 MEQ/L, the “TOTAL BILIRUBIN” value [3] was 0.2 mg/dL and the “TOTAL PROTEIN” value [3] was 6.43 G/DL. For the same compound, the BASOPHIL [4] was 1.7%, the EOSINOPHIL [4] was 5.9% and the “ERYTHROCYTE COUNT” value [4] was 7.33 x10E6/uL. For the same compound, the HEMATOCRIT [4] was 45.75%, the HEMOGLOBIN [4] was 14.55 G/DL and the “LEUKOCYTE COUNT” value [4] was 9.46 x10E3/uL. The LYMPHOCYTE [4] was 42.8%, the “MEAN CORPUSCULAR HEMOGLOBIN” value [4] was 19.85 pg and the “MEAN CORPUSCULAR HEMOGLOBIN CONCENTRATION” value [4] was 31.85 G/DL. For the same compound, the “MEAN CORPUSCULAR VOLUME” value [4] was 62.35 fL, the MONOCYTE [4] was 1.7% and the NEUTROPHIL [4] was 47.25%. For the same compound, the “PLATELET COUNT” value [4] was 1408 x10E3/uL, the “ALANINE AMINOTRANSFERASE” value [4] was 30.33 u/L and the ALBUMIN [4] was 3.67 G/DL. For the same compound, the “ALKALINE PHOSPHATASE” value [4] was 296.33 u/L, the “ASPARTATE AMINOTRANSFERASE” value [4] was 52.67 u/L and the “BLOOD UREA NITROGEN” value [4] was 12.67 mg/dL. The CHLORIDE [4] was 104 MEQ/L, the CHOLESTEROL [4] was 61 mg/dL and the “CREATINE PHOSPHOKINASE” value [4] was 128.67 u/L. The CREATININE [4] was 0.43 mg/dL, the GLUCOSE [4] was 196 mg/dL and the PHOSPHORUS [4] was 12.73 mg/dL. For the same compound, the POTASSIUM [4] was 7.17 MEQ/L, the SODIUM [4] was 149.67 MEQ/L and the “TOTAL BILIRUBIN” value [4] was 0.43 mg/dL. For the same compound, the “TOTAL PROTEIN” value [4] was 6.7 G/DL.
